Data: patent US11219221B2 (FarmHannong Co., Ltd., priority 2017, dated 2022)

Tests used:
Type in all cases: cell-based
Settings in all cases: LB agar, 37° C., light, 16 to 20 hours
[1] = system: CyPPO16 wild type (SEQ ID NO: 1) in PPO-deficient E. coli BT3(ΔPPO)
Method: (§1) The mutated CyPPO gene obtained from the Example 2 was transformed to BT3 (ΔPPO) strain which is deficient of PPO activity and cultured in LB media with PPO-inhibiting herbicide, thereby examining whether growth of transformed BT3 was not inhibited.
(§2) BT3 competent cells were transformed with the pET303-CyPPO16 and pET303-CyPPO17 plasmids and those with a mutation(s) constructed in Example 2 respectively, and were cultured in LB agar media containing carbenicillin (Gold Biotechnology, Co., Ltd.).
(§3) Single colony of E. coli transformed with each CyPPO gene was cultured in 3 ml of LB broth containing carbenicillin overnight, and then was subcultured until absorbance (0D600) reached 0.5 to 1. Then, it was diluted with LB broth to OD600=0.5. Again, the diluted solution was serially diluted 4 times by a factor of one tenth.
(§4) The LB agar media (LB 25 g/l, Bacto agar 15 g/l) containing carbenicillin (100 μg/ml) and 0 to 4,000 μM of various herbicides dissolved in DMSO was prepared. Next, 10 μl of each diluted solution was dropped on the plate and cultured at 37° C. under light (Tables 7 and 9, FIGS. 2 to 6, and 18 to 22) or dark (Tables 8 and 10, FIGS. 7 to 17, and 23 to 33) for 16 to 20 hours. Then, extent of tolerance was evaluated.
(§5) The extent of herbicide tolerance of the mutated genes was evaluated by comparing that of mutated genes with that of wild type. The relative tolerance was represented with “+” as a factor of 10 times. Evaluation result was listed in Tables 7 to10 and FIGS. 2 to 33:
(§6) In Tables 7 to 10, tolerance level was presented as of tolerance of wild type and of variants equivalent to that of wild type, and was done as ‘+’ per each 10 fold resistance until ‘+++++’ as maximal resistance. (Tolerance level was evaluated by relative growth level of variants to that of wild type in the media containing highest concentration of herbicide; ‘+’=1-9 fold higher tolerance, ‘++’=10-99 fold higher tolerance, ‘+++’=100-999 fold higher tolerance, ‘++++’=1,000-9,999 fold higher tolerance, ‘+++++’=more than 10,000 fold higher tolerance)

[2] = system: CyPPO17 wild type (SEQ ID NO: 3) in PPO-deficient E. coli BT3(ΔPPO)
Method: as §1, §2, §3, §4, §5, §6

[3] = system: CyPPO16 (SEQ ID NO: 1) variant A162C in PPO-deficient E. coli BT3(ΔPPO)
Method: as §1, §2, §3, §4
(§7) The extent of herbicide tolerance of the mutated genes was evaluated by comparing that of mutated genes with that of wild type. The relative tolerance was represented with “+” as a factor of 10 times.
(§8) In Tables 7 to 10, tolerance level was presented as of tolerance of wild type and of variants equivalent to that of wild type, and was done as ‘+’ per each 10 fold resistance until ‘+++++’ as maximal resistance.

[4] = system: CyPPO16 (SEQ ID NO: 1) variant A162L in PPO-deficient E. coli BT3(ΔPPO)
Method: as §1, §2, §3, §4, §7, §8

[5] = system: CyPPO16 (SEQ ID NO: 1) variant F360C in PPO-deficient E. coli BT3(ΔPPO)
Method: as §1, §2, §3, §4, §7, §8

[6] = system: CyPPO16 (SEQ ID NO: 1) variant F360I in PPO-deficient E. coli BT3(ΔPPO)
Method: as §1, §2, §3, §4, §7, §8

[7] = system: CyPPO16 (SEQ ID NO: 1) variant F360L in PPO-deficient E. coli BT3(ΔPPO)
Method: as §1, §2, §3, §4, §7, §8

[8] = system: CyPPO16 (SEQ ID NO: 1) variant F360M in PPO-deficient E. coli BT3(ΔPPO)
Method: as §1, §2, §3, §4, §7, §8

[9] = system: CyPPO16 (SEQ ID NO: 1) variant F360V in PPO-deficient E. coli BT3(ΔPPO)
Method: as §1, §2, §3, §4, §7, §8

[10] = system: CyPPO16 (SEQ ID NO: 1) variant V305M in PPO-deficient E. coli BT3(ΔPPO)
Method: as §1, §2, §3, §4, §7, §8

[11] = system: CyPPO17 (SEQ ID NO: 3) variant A166C in PPO-deficient E. coli BT3(ΔPPO)
Method: as §1, §2, §3, §4, §7, §8

[12] = system: CyPPO17 (SEQ ID NO: 3) variant A166L in PPO-deficient E. coli BT3(ΔPPO)
Method: as §1, §2, §3, §4, §7, §8

[13] = system: CyPPO17 (SEQ ID NO: 3) variant F359C in PPO-deficient E. coli BT3(ΔPPO)
Method: as §1, §2, §3, §4, §7, §8

[14] = system: CyPPO17 (SEQ ID NO: 3) variant F359I in PPO-deficient E. coli BT3(ΔPPO)
Method: as §1, §2, §3, §4, §7, §8

[15] = system: CyPPO17 (SEQ ID NO: 3) variant F359L in PPO-deficient E. coli BT3(ΔPPO)
Method: as §1, §2, §3, §4, §7, §8

[16] = system: CyPPO17 (SEQ ID NO: 3) variant F359M in PPO-deficient E. coli BT3(ΔPPO)
Method: as §1, §2, §3, §4, §7, §8

[17] = system: CyPPO17 (SEQ ID NO: 3) variant V304M in PPO-deficient E. coli BT3(ΔPPO)
Method: as §1, §2, §3, §4, §7, §8

SMILES | Herbicide tolerance (relative to wild type) [1] | Herbicide tolerance (relative to wild type) [2] | Herbicide tolerance (relative to wild type) [3] | Herbicide tolerance (relative to wild type) [4] | Herbicide tolerance (relative to wild type) [5] | Herbicide tolerance (relative to wild type) [6] | Herbicide tolerance (relative to wild type) [7] | Herbicide tolerance (relative to wild type) [8] | Herbicide tolerance (relative to wild type) [9] | Herbicide tolerance (relative to wild type) [10] | Herbicide tolerance (relative to wild type) [11] | Herbicide tolerance (relative to wild type) [12] | Herbicide tolerance (relative to wild type) [13] | Herbicide tolerance (relative to wild type) [14] | Herbicide tolerance (relative to wild type) [15] | Herbicide tolerance (relative to wild type) [16] | Herbicide tolerance (relative to wild type) [17]
O=C(O)c1cc(Oc2ccc(C(F)(F)F)cc2Cl)ccc1[N+](=O)[O-] [acifluorfen] | − | − | ++ (10-99 fold higher tolerance) | ++ (10-99 fold higher tolerance) | ++ (10-99 fold higher tolerance) | + (1-9 fold higher tolerance) | + (1-9 fold higher tolerance) | + (1-9 fold higher tolerance) | + (1-9 fold higher tolerance) | ++ (10-99 fold higher tolerance) | +++ (100-999 fold higher tolerance) | +++ (100-999 fold higher tolerance) | + (1-9 fold higher tolerance) | + (1-9 fold higher tolerance) | + (1-9 fold higher tolerance) | +++ (100-999 fold higher tolerance) | +++ (100-999 fold higher tolerance)
CS(=O)(=O)NC(=O)c1cc(Oc2ccc(C(F)(F)F)cc2Cl)ccc1[N+](=O)[O-] [fomesafen] | − | − | ++ (10-99 fold higher tolerance) | ++ (10-99 fold higher tolerance) | ++ (10-99 fold higher tolerance) | + (1-9 fold higher tolerance) | +++ (100-999 fold higher tolerance) | +++ (100-999 fold higher tolerance) | + (1-9 fold higher tolerance) | ++ (10-99 fold higher tolerance) | + (1-9 fold higher tolerance) | ++ (10-99 fold higher tolerance) | + (1-9 fold higher tolerance) | + (1-9 fold higher tolerance) | + (1-9 fold higher tolerance) | ++ (10-99 fold higher tolerance) | ++ (10-99 fold higher tolerance)
CC(C)=C1OC(=O)N(c2cc(OC3CCCC3)c(Cl)cc2F)C1=O [pentoxazone] | − | − | ++ (10-99 fold higher tolerance) | ++ (10-99 fold higher tolerance) | ++ (10-99 fold higher tolerance) | + (1-9 fold higher tolerance) | + (1-9 fold higher tolerance) | + (1-9 fold higher tolerance) | + (1-9 fold higher tolerance) | + (1-9 fold higher tolerance) | + (1-9 fold higher tolerance) | ++ (10-99 fold higher tolerance) | + (1-9 fold higher tolerance) | ++ (10-99 fold higher tolerance) | + (1-9 fold higher tolerance) | ++ (10-99 fold higher tolerance) | + (1-9 fold higher tolerance)
C#CCN(C)c1c(C#N)cnn1-c1nn2c(c1Cl)CCCC2 [pyraclonil] | − | − | ++ (10-99 fold higher tolerance) | ++ (10-99 fold higher tolerance) | ++ (10-99 fold higher tolerance) | + (1-9 fold higher tolerance) | + (1-9 fold higher tolerance) | + (1-9 fold higher tolerance) | + (1-9 fold higher tolerance) | + (1-9 fold higher tolerance) |  | + (1-9 fold higher tolerance) | + (1-9 fold higher tolerance) | + (1-9 fold higher tolerance) | + (1-9 fold higher tolerance) | + (1-9 fold higher tolerance) | 
